From patent US20230265151A1, “GIP/GLP1 CO-AGONIST COMPOUNDS” (priority 2020, published 2023)
Read-outs that look alike come from different tables or passages of the source. *1 amine or outer side, *2 acyl side, *3 side chain or, on linkers, in order; H or OH if unused. Where a SMILES comes first, the peptide text is derived from it. Side-chain parts run from the residue outwards. [ ]: non-standard residue; d: D form. The star is where a group is joined. αMePhe(2-F) = C[C@](N)(Cc1ccccc1F)C(=O)O; γGlu = O=C(O)[C@H](CCC(=O)[*:2])N[*:1]; C14 diacid = O=C(O)CCCCCCCCCCCCC(=O)*; αMeY = C[C@](N)(Cc1ccc(O)cc1)C(=O)O; αMeL = CC(C)C[C@](C)(N)C(=O)O; Orn = NCCC[C@H](N)C(=O)O; AEEA = NCCOCCOCC(=O)O; Aib = CC(C)(N)C(=O)O

Assays:
Format in all cases: cell-based
hGCGR = molecular target: T1, hGCGR (Homo sapiens, UniProt P47871); experiment: Functional cAMP formation (HTRF) in HEK-293 clonal cells expressing hGCGR, 0.1% bovine casein, without or with 1.0% human serum albumin; details: geometric mean, read-out: hGCGR EC50, nM (SEM, n)
T1 construct: expressed in transfected cells
Method in brief: (§1)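 Cells were stimulated with peptide for 30 min at 37° C, then intracellular cAMP was measured by competitive HTRF (665/620 nm ratio) and converted to nM using a cAMP standard curve. Relative EC50 and Emax came from four-parameter logistic fits of percent maximal response against peptide concentration.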

hGLP-1R = hGLP-1R (Homo sapiens, UniProt P43220); experiment: Functional cAMP formation (HTRF) in HEK-293 clonal cells expressing hGLP-1R, 0.1% bovine casein, without or with 1.0% human serum albumin; parameters: expressed in transfected cells; details: for EC50: geometric mean, read-out: hGLP-1R EC50, nM (SEM, n); for Emax: read-out: hGLP-1R Emax, % ± SEM
Method in brief: as §1

hGIPR = molecular target: T2, hGIPR (Homo sapiens, UniProt P48546); experiment: Functional cAMP formation (HTRF) in HEK-293 clonal cells expressing hGIPR, 0.1% bovine casein, without or with 1.0% human serum albumin; details: for Emax: read-out: hGIPR Emax, % ± SEM; for EC50: geometric mean, read-out: hGIPR EC50, nM (SEM, n)
T2 construct: expressed in transfected cells
T2 sequence (P48546 22-466): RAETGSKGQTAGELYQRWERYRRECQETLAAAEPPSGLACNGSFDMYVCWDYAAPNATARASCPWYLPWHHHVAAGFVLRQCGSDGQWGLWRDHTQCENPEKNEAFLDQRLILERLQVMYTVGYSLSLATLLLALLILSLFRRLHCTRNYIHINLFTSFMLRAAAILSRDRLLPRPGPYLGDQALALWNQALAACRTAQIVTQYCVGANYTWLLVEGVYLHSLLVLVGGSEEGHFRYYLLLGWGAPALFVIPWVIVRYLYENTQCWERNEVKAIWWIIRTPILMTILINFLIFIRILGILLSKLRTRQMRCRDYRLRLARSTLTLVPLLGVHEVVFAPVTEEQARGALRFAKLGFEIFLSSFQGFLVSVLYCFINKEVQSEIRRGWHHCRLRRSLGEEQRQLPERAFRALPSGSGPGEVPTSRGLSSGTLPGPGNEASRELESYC
Method in brief: as §1

[1] = 0.1% bovine casein and 1.0% human serum albumin, 37° C.
[2] = cAMP, incubated at 37° C., 0.1% bovine casein (no human serum albumin)
[3] = HEK293, 0.1% bovine casein and 1.0% human serum albumin, 37° C., percent of maximal response to GLP-1(7-36)NH2
[4] = HEK293, percent of maximal response to GLP-1(7-36)NH2, 37° C., 0.1% bovine casein, arithmetic mean
[5] = HEK293, percent of maximal response to GIP(1-42)NH2, 37° C., 0.1% bovine casein, arithmetic mean
[6] = HEK293, 0.1% bovine casein and 1.0% human serum albumin, 37° C., percent of maximal response to GIP(1-42)NH2

Chain of hGLP-1R (P43220 24-463): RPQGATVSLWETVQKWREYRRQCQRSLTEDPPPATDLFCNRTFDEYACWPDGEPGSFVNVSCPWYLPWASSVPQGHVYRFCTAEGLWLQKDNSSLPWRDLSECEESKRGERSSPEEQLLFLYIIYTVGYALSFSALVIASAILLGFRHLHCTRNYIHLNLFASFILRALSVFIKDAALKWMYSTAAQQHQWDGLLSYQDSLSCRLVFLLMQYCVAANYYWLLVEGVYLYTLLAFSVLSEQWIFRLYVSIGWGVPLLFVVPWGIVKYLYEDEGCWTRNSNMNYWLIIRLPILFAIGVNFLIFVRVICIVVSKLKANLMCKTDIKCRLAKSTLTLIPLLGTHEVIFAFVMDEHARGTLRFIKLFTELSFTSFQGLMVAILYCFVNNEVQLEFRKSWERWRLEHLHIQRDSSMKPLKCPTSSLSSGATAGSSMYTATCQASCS
T1 sequence (P47871 26-477): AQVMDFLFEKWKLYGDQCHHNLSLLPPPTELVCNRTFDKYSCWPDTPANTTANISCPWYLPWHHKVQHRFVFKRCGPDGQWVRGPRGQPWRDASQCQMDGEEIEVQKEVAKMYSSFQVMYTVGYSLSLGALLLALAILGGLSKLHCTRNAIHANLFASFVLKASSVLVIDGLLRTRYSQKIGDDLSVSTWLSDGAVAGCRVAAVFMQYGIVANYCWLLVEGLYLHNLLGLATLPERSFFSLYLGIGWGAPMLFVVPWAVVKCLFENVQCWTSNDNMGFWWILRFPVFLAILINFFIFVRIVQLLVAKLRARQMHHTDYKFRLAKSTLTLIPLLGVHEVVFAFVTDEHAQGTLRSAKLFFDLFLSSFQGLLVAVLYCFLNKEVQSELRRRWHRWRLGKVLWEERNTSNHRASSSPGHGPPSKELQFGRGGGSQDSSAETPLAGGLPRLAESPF

Compound	EC50 (hGCGR; [1]) [nM]	EC50 (hGCGR; [2]) [nM]	EC50 (hGLP-1R; [1]) [nM]	Emax (hGLP-1R; [3]) [%]	Emax (hGLP-1R; [4]) [%]	EC50 (hGLP-1R; [2]) [nM]	Emax (hGIPR; [5]) [%]	Emax (hGIPR; [6]) [%]	EC50 (hGIPR; [2]) [nM]	EC50 (hGIPR; [1]) [nM]
CC[C@H](C)[C@H](NC(=O)[C@H](CC(C)C)NC(=O)[C@](C)(Cc1ccc(O)cc1)NC(=O)[C@@H](CCC(=O)O)NC(=O)[C@@H](NC(=O)[C@H](Cc1ccccc1)NC(=O)[C@H](CCC(=O)O)NC(=O)C(C)(C)NC(=O)[C@H](CCC(N)=O)NC(=O)[C@H](C)NC(=O)[C@H](CCCCNC(=O)COCCOCCNC(=O)COCCOCCNC(=O)CC[C@H](NC(=O)CCCCCCCCCCCCC(=O)O)C(=O)O)NC(=O)[C@H](CCCN)NC(=O)[C@H](CC(=O)O)NC(=O)[C@H](CC(C)C)NC(=O)[C@](C)(CC(C)C)NC(=O)[C@@H](NC(=O)[C@H](CO)NC(=O)[C@@H](NC(=O)[C@H](CC(=O)O)NC(=O)[C@H](CO)NC(=O)[C@@H](NC(=O)[C@](C)(Cc1ccccc1F)NC(=O)[C@@H](NC(=O)CNC(=O)[C@H](CCC(=O)O)NC(=O)C(C)(C)NC(=O)[C@@H](N)Cc1ccc(O)cc1)[C@@H](C)O)[C@@H](C)O)C(C)C)[C@@H](C)CC)[C@@H](C)CC)C(=O)N[C@@H](CCC(=O)O)C(=O)NCC(=O)NCC(=O)N[C@@H](CCCCNC(=O)COCCOCCNC(=O)COCCOCCNC(=O)CC[C@H](NC(=O)CCCCCCCCCCCCC(=O)O)C(=O)O)C(=O)N[C@@H](CO)C(=O)N[C@@H](CO)C(=O)NCC(=O)N[C@@H](C)C(=O)N1CCC[C@H]1C(=O)N1CCC[C@H]1C(=O)N1CCC[C@H]1C(=O)N[C@@H](CO)C(N)=O [Example 90] (H-Y[Aib]EGT[αMePhe(2-F)]TSDVSI[αMeL]LD[Orn]K([AEEA-AEEA-γGlu-C14 diacid])AQ[Aib]EFI[dE][αMeY]LIEGGK([AEEA-AEEA-γGlu-C14 diacid])SSGAPPPS-NH2)	> 9950	> 9950	23.4	96.6	96.2 ± 1.5	0.221	93 ± 3.31			
CC[C@H](C)[C@H](NC(=O)[C@H](CC(C)C)NC(=O)[C@](C)(Cc1ccc(O)cc1)NC(=O)[C@@H](CCC(=O)O)NC(=O)[C@@H](NC(=O)[C@](C)(Cc1ccccc1)NC(=O)[C@H](CCC(=O)O)NC(=O)C(C)(C)NC(=O)[C@H](CCC(N)=O)NC(=O)[C@H](C)NC(=O)[C@H](CCCCNC(=O)COCCOCCNC(=O)COCCOCCNC(=O)CC[C@H](NC(=O)CCCCCCCCCCCCC(=O)O)C(=O)O)NC(=O)[C@H](CCCN)NC(=O)[C@H](CC(=O)O)NC(=O)[C@H](CC(C)C)NC(=O)[C@](C)(CC(C)C)NC(=O)[C@@H](NC(=O)C(C)(C)NC(=O)[C@@H](NC(=O)[C@H](CC(=O)O)NC(=O)[C@H](CO)NC(=O)[C@@H](NC(=O)[C@](C)(Cc1ccccc1F)NC(=O)[C@@H](NC(=O)CNC(=O)[C@H](CCC(=O)O)NC(=O)C(C)(C)NC(=O)[C@@H](N)Cc1ccc(O)cc1)[C@@H](C)O)[C@@H](C)O)C(C)C)[C@@H](C)CC)[C@@H](C)CC)C(=O)N[C@@H](CCC(=O)O)C(=O)NCC(=O)NCC(=O)N[C@@H](CCCCNC(=O)COCCOCCNC(=O)COCCOCCNC(=O)CC[C@H](NC(=O)CCCCCCCCCCCCC(=O)O)C(=O)O)C(=O)N[C@@H](CO)C(=O)N[C@@H](CO)C(=O)NCC(=O)N[C@@H](C)C(=O)N1CCC[C@H]1C(=O)N1CCC[C@H]1C(=O)N1CCC[C@H]1C(=O)N[C@@H](CO)C(N)=O [Example 93]	> 9950	> 9950		90.2			99.4 ± 6.93	92		
CC[C@H](C)[C@H](NC(=O)[C@H](CC(C)C)NC(=O)[C@](C)(Cc1ccc(O)cc1)NC(=O)[C@@H](CCC(=O)O)NC(=O)[C@@H](NC(=O)[C@](C)(Cc1ccccc1)NC(=O)[C@H](CCC(=O)O)NC(=O)C(C)(C)NC(=O)[C@H](CCC(N)=O)NC(=O)[C@H](C)NC(=O)[C@H](CCCCNC(=O)COCCOCCNC(=O)COCCOCCNC(=O)CC[C@H](NC(=O)CCCCCCCCCCCCC(=O)O)C(=O)O)NC(=O)[C@H](CCCN)NC(=O)[C@H](CC(=O)O)NC(=O)[C@H](CC(C)C)NC(=O)[C@](C)(CC(C)C)NC(=O)[C@@H](NC(=O)[C@H](CO)NC(=O)C1(NC(=O)[C@H](CC(=O)O)NC(=O)[C@H](CO)NC(=O)[C@@H](NC(=O)[C@](C)(Cc2ccccc2F)NC(=O)[C@@H](NC(=O)CNC(=O)[C@H](CCC(=O)O)NC(=O)C(C)(C)NC(=O)[C@@H](N)Cc2ccc(O)cc2)[C@@H](C)O)[C@@H](C)O)CCCC1)[C@@H](C)CC)[C@@H](C)CC)C(=O)N[C@@H](CCC(=O)O)C(=O)NCC(=O)NCC(=O)N[C@@H](CCCCNC(=O)COCCOCCNC(=O)COCCOCCNC(=O)CC[C@H](NC(=O)CCCCCCCCCCCCC(=O)O)C(=O)O)C(=O)N[C@@H](CO)C(=O)N[C@@H](CO)C(=O)NCC(=O)N[C@@H](C)C(=O)N1CCC[C@H]1C(=O)N1CCC[C@H]1C(=O)N1CCC[C@H]1C(=O)N[C@@H](CO)C(N)=O [Example 94]	> 9950	> 9950		113	97.4	2.1	91	97.1	0.0132	
CC[C@H](C)[C@H](NC(=O)[C@H](CC(C)C)NC(=O)[C@](C)(Cc1ccc(O)cc1)NC(=O)[C@@H](CCC(=O)O)NC(=O)[C@@H](NC(=O)[C@H](Cc1ccccc1)NC(=O)[C@H](CCC(=O)O)NC(=O)C(C)(C)NC(=O)[C@H](CCC(N)=O)NC(=O)[C@H](C)NC(=O)[C@H](CCCCNC(=O)COCCOCCNC(=O)COCCOCCNC(=O)CC[C@H](NC(=O)CCCCCCCCCCCCC(=O)O)C(=O)O)NC(=O)[C@H](CCCN)NC(=O)[C@H](CC(=O)O)NC(=O)[C@H](CC(C)C)NC(=O)[C@](C)(CC(C)C)NC(=O)[C@@H](NC(=O)[C@H](CO)NC(=O)C1(NC(=O)[C@H](CC(=O)O)NC(=O)[C@H](CO)NC(=O)[C@@H](NC(=O)[C@](C)(Cc2ccccc2F)NC(=O)[C@@H](NC(=O)CNC(=O)[C@H](CCC(=O)O)NC(=O)C(C)(C)NC(=O)[C@@H](N)Cc2ccc(O)cc2)[C@@H](C)O)[C@@H](C)O)CCC1)[C@@H](C)CC)[C@@H](C)CC)C(=O)N[C@@H](CCC(=O)O)C(=O)NCC(=O)NCC(=O)N[C@@H](CCCCNC(=O)COCCOCCNC(=O)COCCOCCNC(=O)CC[C@H](NC(=O)CCCCCCCCCCCCC(=O)O)C(=O)O)C(=O)N[C@@H](CO)C(=O)N[C@@H](CO)C(=O)NCC(=O)N[C@@H](C)C(=O)N1CCC[C@H]1C(=O)N1CCC[C@H]1C(=O)N1CCC[C@H]1C(=O)N[C@@H](CO)C(N)=O [Example 95]	> 9950	> 9950		84	86.9		97.3	86.9		4.68
CC[C@H](C)[C@H](NC(=O)[C@H](CC(C)C)NC(=O)[C@](C)(Cc1ccc(O)cc1)NC(=O)[C@@H](CCC(=O)O)NC(=O)[C@@H](NC(=O)[C@H](Cc1ccccc1)NC(=O)[C@H](CCC(=O)O)NC(=O)C(C)(C)NC(=O)[C@H](CCC(N)=O)NC(=O)[C@H](C)NC(=O)[C@H](CCCCNC(=O)COCCOCCNC(=O)COCCOCCNC(=O)CC[C@H](NC(=O)CCCCCCCCCCCCC(=O)O)C(=O)O)NC(=O)[C@H](CCCN)NC(=O)[C@H](CC(=O)O)NC(=O)[C@H](CC(C)C)NC(=O)[C@](C)(CC(C)C)NC(=O)[C@@H](NC(=O)[C@H](CO)NC(=O)[C@H](CC1CCCCC1)NC(=O)[C@H](CC(=O)O)NC(=O)[C@H](CO)NC(=O)[C@@H](NC(=O)[C@](C)(Cc1ccccc1F)NC(=O)[C@@H](NC(=O)CNC(=O)[C@H](CCC(=O)O)NC(=O)C(C)(C)NC(=O)[C@@H](N)Cc1ccc(O)cc1)[C@@H](C)O)[C@@H](C)O)[C@@H](C)CC)[C@@H](C)CC)C(=O)N[C@@H](CCC(=O)O)C(=O)NCC(=O)NCC(=O)N[C@@H](CCCCNC(=O)COCCOCCNC(=O)COCCOCCNC(=O)CC[C@H](NC(=O)CCCCCCCCCCCCC(=O)O)C(=O)O)C(=O)N[C@@H](CO)C(=O)N[C@@H](CO)C(=O)NCC(=O)N[C@@H](C)C(=O)N1CCC[C@H]1C(=O)N1CCC[C@H]1C(=O)N1CCC[C@H]1C(=O)N[C@@H](CO)C(N)=O [Example 98]	> 9950	> 9950		97.5		0.227	97.7 ± 2.54	95	0.0148	
